Laboratory results reported in patent US6346539B1, “Treatment of skin conditions” (BTG International Limited, priority 1998, dated 2002).
Like-named read-outs stand apart in the source and are kept apart here.

Experiments:
melan-a cells [1] = experiment: Effect of RO-31-8220 on growth of melan-a cells with piperine and TPA, SRB assay; format: cell-based, mouse; details: 4 days
Procedure: Cells of mouse melan-a cell line (passage number 18-24), a first known line of non-tumorigenic pigmented mouse melanocytes were maintained in a flask (Costar, Cambridge, Mass., USA) using RPMI 1640 (ICN, Costa, Mesa, Calif., USA) as a basic medium. For microplate proliferation assays, subconfluent melan-a cultures were trypsinized (0.25% trypsin at 37° C. for 5-10 min) and inoculated with a repeater-pipettor (Finn pipette, Labsystems, Finland) into 96-well microtiter plates (Costar, Cambridge, Mass., USA). The plates were incubated at 37° C. in a 10% CO2, 90% air humidified atmosphere for the stated length of time. At the end of the incubation, an SRB assay was performed. Briefly, cells attached to the bottom of the plate were fixed by addition of cold trichloroacetic acid (TCA, 4° C., Aldrich, Dorset, UK) on the top of the growth medium (final TCA 20% w/v). The plate was placed at 4° C. for 1 hour before being gently washed five times with tap water. It was allowed to dry in air, or aided with a hair dryer to speed up the drying process, then 50 μl of 4% w/v SRB dissolved in 1% acetic acid in water was added to each well for 30 min. […] The plate was shaken for 15 min on a gyratory shaker followed by reading the optical density (OD) at 550 nm in a microplate spectrophotometer (Anthos Labtec HT3, version 1.06). […]

melan-a cells [2] = experiment: Dendricity of melan-a cells by observation under microscope; format: cell-based, mouse; design: key: +++: highly dendritic; ++: moderately dendritic; +: weakly dendritic; −: no effect
Excerpt: Effect on dendricity of melan-a cells by the test compounds was by observation under microscope. Dendricity is relevant to vitiligo since normal skin melanocytes have dendrites, but in vitiligo the melanocytes seem to lose these before they disappear from the patches.

mouse melan-a cells = experiment: Melanocyte proliferant activity of piperine derivatives, SRB assay, 4 days, 10% FBS; format: cell-based; details: for Relative activity to piperine: (A-100) compound/(A-100) piperine; for activity at 1 µM / activity at 10 µM / activity at 50 µM / activity at 100 µM / activity at 25 µM: Mus musculus, Melan-a, 96 h; for More active than piperine at higher conc. (μM)?: concentrations at which more active than piperine
Procedure: The plates were incubated at 37° C. in a 10% CO2, 90% air humidified atmosphere for the stated length of time. At the end of the incubation, an SRB assay was performed. Briefly, cells attached to the bottom of the plate were fixed by addition of cold trichloroacetic acid (TCA, 4° C., Aldrich, Dorset, UK) on the top of the growth medium (final TCA 20% w/v). The plate was placed at 4° C. for 1 hour before being gently washed five times with tap water. It was allowed to dry in air, or aided with a hair dryer to speed up the drying process, then 50 μl of 4% w/v SRB dissolved in 1% acetic acid in water was added to each well for 30 min. At the end of the staining period, unbound SRB was removed by washing 4 times with 1% acetic acid. The plate was air dried again, and 150 μl of 10 mM aqueous Tris base (Sigma-Aldrich Co. Ltd, Irvine, UK) was added into each well to solubilize the cell-bound dye.
Various piperine derivatives of formula (1) were synthesised and tested for melanocyte (mouse melan-a) proliferant activity in-vitro. Cells we re incubated with the test compound for 4 days, as previously for the mouse cells but with 10% FBS, after which the sulphorhodamine-B (SRB) assay was performed to determnine cell number SRB uptake was measured as optical density at 550 nm. The control assay was carried out on cells incubated without test compound. There were 2 or 3 series of experiments, each of which consisted of six replcate experiments.
Percentage cell growth was obtained with a given compound calculated as (optical density in the presence of the compound/control optical density)×100.
Melan-a cell proliferant activity for tested compounds was compared with that obtained with piperine. […] All figures are given with Standard Error of the Mean.

[3] = read-out: growth of melan-a cells as % of control, dose experiment
[4] = 10 μM, read-out: growth of melan-a cells as % of control, dose experiment
[5] = single concentration (10 μM), melan-a, ± SEM, read-out: Percentage cell growth (Repeated experiments)
[6] = single concentration (10 μM), melan-a

SMILES	Dentricity, dose experiment (melan-a cells [2]; 1 μM)	Dentricity, dose experiment (melan-a cells [2]; 10 μM)	Dentricity, dose experiment (melan-a cells [2]; 50 μM)	Dentricity, dose experiment (melan-a cells [2]; 100 μM)	Dendricity (melan-a cells [2]; Table 7, 10 μM)	activity at 1 µM (mouse melan-a cells; [3]) [%]	activity at 10 µM (mouse melan-a cells; [4]) [%]	activity at 50 µM (mouse melan-a cells; [3]) [%]	activity at 100 µM (mouse melan-a cells; [3]) [%]	activity at 10 µM (mouse melan-a cells; [5]) [%]	More active than piperine at higher conc. (μM)? (mouse melan-a cells; overall summary)	Active at 10 μM? (mouse melan-a cells; overall summary, melan-a)	Stimulant activity (mouse melan-a cells; [6])	further results
Cn1cc(C2=C(c3cn(CCCSC(=N)N)c4ccccc34)C(=O)NC2=O)c2ccccc21 [RO-31-8220]														effect of RO-31-8220 on the proliferant effects of piperine and TPA on melan-a cells (melan-a cells [1]; RO-31-8220 0.1-100 nM, piperine 1 μM, TPA 20 nM): effectively inhibited; cytotoxic effect of RO-31-8220 alone on melan-a cells (melan-a cells [1]; concentrations up to 100 nM): did not have significant cytotoxic effect
CNC(=O)/C=C/C=C/c1ccc2c(c1)OCO2 [RV-A07, 5-E,E-piperinoylmethylamine]	++	++	+	+	++	140 ± 12	170 ± 24	71 ± 5	46 ± 2	170 ± 24	No	Yes	Positive	Relative activity to piperine (mouse melan-a cells; 10 μM): 0.6; Active at higher conc. (μM)? (mouse melan-a cells; overall summary, concentrations at which active): No
O=C(/C=C/C=C/c1ccc2c(c1)OCO2)N1CCCC1 [RV-A01, 5-E,E-piperinoylpyrrolidine]					+++	109 ± 7	122 ± 7	186 ± 14		183 ± 34		Yes	Positive	"cross-over" effect relative to piperine (mouse melan-a cells; 10 μM versus 50 μM): less active than piperine at 10 μM but more active at 50 μM; activity at 25 µM (mouse melan-a cells; [3]): 142 ± 21%
O=C(/C=C/C=C/c1ccc2c(c1)OCO2)NCc1ccc2c(c1)OCO2 [RV-A04, 5-E,E-piperinoylpiperinolymine]	−	+	+		+	101 ± 12	138 ± 10	150 ± 15	71 ± 9			Yes^a	Non- significant here, but positive in dose response test	
CCCCNC(=O)/C=C/C=C/c1ccc2c(c1)OCO2 [RV-A11, 5-E,E-piperinoylbutylamine]	+++	+++	++	+	+++	189 ± 6	264 ± 21	158 ± 20	84 ± 6	264 ± 21		Yes	Positive	Relative activity to piperine (mouse melan-a cells; 10 μM): 0.66
O=C(CCc1ccc2c(c1)OCO2)N1CCCCC1 [RV-C03, 3-benzo-1,3-dioxol-5-ylpropionic Acid Piperidide]										104 ± 5		No^b	None	Dendricity (melan-a cells [2]; Table 11, 10 μM): +
O=C(CCCCc1ccc2c(c1)OCO2)N1CCCCC1 [RV-C02, Tetrahydropiperine]						134 ± 15	183 ± 33	175 ± 12			No	Yes	Positive	Dendricity (melan-a cells [2]; Table 11, 10 μM): +++; activity at 25 µM (mouse melan-a cells; [3]): 199 ± 31%
COc1ccc(/C=C/C(=O)N2CCCCC2)cc1OC [RV-G04, 1-(3,4-dimethoxycinnamoyl)piperidine]	−	−	−	−		95 ± 11	100 ± 9	114 ± 8	123 ± 7	100 ± 9	No	No	None	Dendricity (melan-a cells [2]; Table 12, 10 μM): −
